Values of other authors in patent publication US20010033859A1, “Transdermal therapeutic system for delivery of dofetilide” (priority 2000, published 2001).

Conditions: stated as a property of the drug substance; solvent system not given

Question: Which partition coefficient does the source give for `CN(CCOc1ccc(NS(C)(=O)=O)cc1)CCc1ccc(NS(C)(=O)=O)cc1` [dofetilide, N-[4-[2-[methyl[2-[4-[(methylsulfonyl)amino]phenoxy]ethyl]amino]ethyl]phenyl]-methanesulfonamide] here?
Answer: about 1
